How the values were obtained:
ABUTH = test: Post-emergence herbicidal effect, greenhouse pot test; format: in vivo, Abutilon theophrasti; details: Abutilon theophrasti, 504 h, visual rating about 3 weeks after treatment, read-out: Post-emergence effect against ABUTH
In short: (§1)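 Weeds sown in sandy loam, greenhouse-grown 2–3 weeks, then sprayed at one-leaf stage with WP or EC formulations in water plus 0.5% additive at 600 l/ha. Rates 20 to 320 g/ha. Visual rating after about 3 weeks versus untreated controls (100% = plants dead, 0% = like control).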

ALOMY = test: as above; format: in vivo, Alopecurus myosuroides; details: Alopecurus myosuroides, 504 h, visual rating about 3 weeks after treatment, read-out: Post-emergence effect against ALOMY
In short: as §1

AVEFA = test: as above; format: in vivo, Avena fatua; details: Avena fatua, 504 h, visual rating about 3 weeks after treatment, read-out: Post-emergence effect against AVEFA
In short: as §1

ECHCG = test: as above; format: in vivo, Echinochloa crus-galli; details: Echinochloa crus-galli, 504 h; for pest or weed control at 80 g/ha / pest or weed control at 320 g/ha: read-out: Post-emergence effect against ECHCG in %
In short: as §1

LOLRI = test: as above; format: in vivo, Lolium rigidum; details: Lolium rigidum, 504 h, read-out: Post-emergence effect against LOLRI in %
From the text: (§2) • ALOMY: Alopecurus myosuroides SETVI: Setaria viridis • AVEFA: Avena fatua POLCO: Fallopia convolvulus • AMARE: Amaranthus retroflexus ECHCG: Echinochloa crus-galli • LOLRJ: Lolium rigidum STEME: Stellaria media • VERPE: Veronica persica MATIN: Tripleurospermum inodorum • DIGSA: Digitaria sanguinalis ABUTH: Abutylon threophrasti • TRZAS: Triticum aestivum VIOTR: Viola tricolor • BRSNW: Brassica napus ZEAMX: Zea mays • PHBPU: Ipomoea purpurea GLXMA: Glycine max • ORYSA: Oryza sativa HORMU: Hordeum murinum
(§3) Seeds of monocotyledonous and dicotyledonous weeds and crop plants are placed in sandy loam in plastic or organic planting pots, covered with soil and cultivated in a greenhouse under controlled growth conditions. 2 to 3 weeks after sowing, the trial plants are treated at the one-leaf stage. The compounds of the invention, formulated in the form of wettable powders (WP) or as emulsion concentrates (EC), are then sprayed onto the green parts of the plants as aqueous suspension or emulsion with addition of 0.5% additive at a water application rate of 600 l/ha (converted). After the test plants have been kept in the greenhouse under optimum growth conditions for about 3 weeks, the activity of the preparations is rated visually in comparison to untreated controls. For example, 100% activity=the plants have died, 0% activity=like control plants.
(§4) Tables 20a to 38c below show the effects/crop compatibilities of selected compounds of the general formula (I) on various harmful plants at an application rate corresponding to 20 to 320 g/ha, which were obtained by the trial procedure specified above.

MATIN = test: as above; format: in vivo, Tripleurospermum inodorum; details: Tripleurospermum inodorum, 504 h, read-out: Post-emergence effect against MATIN in %
In short: as §1

PHBPU = test: as above; format: in vivo, Ipomoea purpurea; details: Ipomoea purpurea, 504 h, read-out: Post-emergence effect against PHBPU in %
In short: as §1

POLCO = test: as above; format: in vivo, Fallopia convolvulus; details: Fallopia convolvulus, 504 h, read-out: Post-emergence effect against POLCO in %
In short: as §1

SETVI = test: as above; format: in vivo, Setaria viridis; details: Setaria viridis, 504 h, read-out: Post-emergence effect against SETVI in %
In short: as §1

VERPE = test: as above; format: in vivo, Veronica persica; details: Veronica persica, 504 h, read-out: Post-emergence effect against VERPE in %
In short: as §1

VIOTR = test: as above; format: in vivo, Viola tricolor; details: Viola tricolor, 504 h, read-out: Post-emergence effect against VIOTR in %
In short: as §1

KCHSC = test: as above; format: in vivo; details: 504 h, 320 g/ha, read-out: Post-emergence effect against KCHSC in %
Description: as §3, with “plants. Tables 20a to 38c below show the effects/crop compatibilities of selected compounds of the general formula (I) on various harmful plants at an application rate corresponding to 20 to 320 g/ha, which were obtained by the trial procedure specified above.” for “plants.”

ZEAMX = test: Post-emergence herbicidal effect and crop plant compatibility, greenhouse pot test; format: in vivo, Zea mays; details: Zea mays, 504 h, 20 g/ha, one-leaf stage, rated visually after about 3 weeks vs untreated controls, read-out: Post-emergence effect at 20 g/ha against ZEAMX in %
From the text: as §2, §3, §4

AMARE = test: Post-emergence herbicidal effect, greenhouse pot test; format: in vivo, Amaranthus retroflexus; details: Amaranthus retroflexus, 504 h, visual rating about 3 weeks after treatment, read-out: Post-emergence effect against AMARE
From the text: as §2, §3, §4

DIGSA = test: as above; format: in vivo, Digitaria sanguinalis; details: Digitaria sanguinalis, 504 h, visual rating about 3 weeks after treatment, read-out: Post-emergence effect against DIGSA
In short: as §1

Structure (SMILES)	pest or weed control at 20 g/ha (ABUTH) [%]	pest or weed control at 80 g/ha (ABUTH) [%]	pest or weed control at 320 g/ha (ABUTH) [%]	pest or weed control at 320 g/ha (ALOMY) [%]	pest or weed control at 80 g/ha (AVEFA) [%]	pest or weed control at 320 g/ha (AVEFA) [%]	pest or weed control at 80 g/ha (ECHCG) [%]	pest or weed control at 320 g/ha (ECHCG) [%]	pest or weed control at 80 g/ha (LOLRI) [%]	pest or weed control at 320 g/ha (LOLRI) [%]	pest or weed control at 320 g/ha (MATIN) [%]	pest or weed control at 80 g/ha (PHBPU) [%]	pest or weed control at 320 g/ha (PHBPU) [%]	pest or weed control at 80 g/ha (POLCO) [%]	pest or weed control at 320 g/ha (POLCO) [%]	pest or weed control at 320 g/ha (SETVI) [%]	pest or weed control at 80 g/ha (VERPE) [%]	pest or weed control at 320 g/ha (VERPE) [%]	pest or weed control at 80 g/ha (VIOTR) [%]	pest or weed control at 320 g/ha (VIOTR) [%]	other results
COC(Oc1nn(-c2cc(F)ccc2F)c(-c2cncc(F)c2)c1C1CC1)C(=O)O (stereo not shown) [Example I-109]	80	80	90	90	80	90	90	90	90	90	80	90	90	80	90	80	80	80	90	90	pest or weed control at 20 g/ha (ECHCG; 20 g/ha, visual rating about 3 weeks after treatment, read-out: Post-emergence effect against ECHCG): 80%; pest or weed control at 20 g/ha (VERPE): 80%; pest or weed control at 320 g/ha (KCHSC): 80%
COC(=O)C(OC)Oc1nn(-c2ccccc2)c(-c2ccc(F)nc2)c1Cl (stereo not shown) [Example I-26]	–	–	90	90	80	90	80	90	90	90	80	80	90	–	–	90	90	90	80	80	plant injury at 20 g/ha (ZEAMX): 20%; pest or weed control at 80 g/ha (ALOMY): 90%; pest or weed control at 20 g/ha (AMARE; 20 g/ha): 80%; pest or weed control at 80 g/ha (AMARE): 80%; pest or weed control at 320 g/ha (AMARE): 80%; pest or weed control at 80 g/ha (DIGSA; 80 g/ha): 80%; pest or weed control at 320 g/ha (DIGSA): 90%; pest or weed control at 20 g/ha (MATIN): 80%; pest or weed control at 80 g/ha (MATIN): 80%; pest or weed control at 20 g/ha (PHBPU): 80%
CCOC(=O)C(OC)Oc1nn(-c2cc(F)ccc2F)c(-c2cncc(F)c2)c1C1CC1 (stereo not shown) [Example I-37]	80	90	90	100	80	90	100	100	90	100	90	90	90	90	90	90	100	100	90	90	pest or weed control at 80 g/ha (ALOMY): 100%; pest or weed control at 80 g/ha (AMARE): 90%; pest or weed control at 320 g/ha (AMARE): 90%; pest or weed control at 320 g/ha (DIGSA): 90%; pest or weed control at 20 g/ha (MATIN): 80%; pest or weed control at 80 g/ha (MATIN): 90%; pest or weed control at 20 g/ha (PHBPU): 90%; pest or weed control at 80 g/ha (SETVI; 80 g/ha): 90%; pest or weed control at 20 g/ha (VERPE): 90%; pest or weed control at 20 g/ha (VIOTR; 20 g/ha): 80%

Reference: patent US20240391862A1, “(1,4,5-TRISUBSTITUTED-1H-PYRAZOL-3-YL)OXY-2-ALKOXY ALKYL ACIDS AND THEIR DERIVATIVES, THEIR SALTS AND THEIR USE AS HERBICIDAL AGENTS” (Bayer AKtiengesellschaft, priority 2021, published 2024)
